{"source": "patent US9481659B2", "about": "“Selective heterocyclic sphingosine 1 phosphate receptor modulators” (Celgene International II SÀRL, priority 2011, dated 2016)", "note": "Where a name gives a salt, the structure may show the parent alone."}
{"molecular_target": "S1P1/EDG1 (Homo sapiens, UniProt P21453)", "sequence (P21453 whole entry)": "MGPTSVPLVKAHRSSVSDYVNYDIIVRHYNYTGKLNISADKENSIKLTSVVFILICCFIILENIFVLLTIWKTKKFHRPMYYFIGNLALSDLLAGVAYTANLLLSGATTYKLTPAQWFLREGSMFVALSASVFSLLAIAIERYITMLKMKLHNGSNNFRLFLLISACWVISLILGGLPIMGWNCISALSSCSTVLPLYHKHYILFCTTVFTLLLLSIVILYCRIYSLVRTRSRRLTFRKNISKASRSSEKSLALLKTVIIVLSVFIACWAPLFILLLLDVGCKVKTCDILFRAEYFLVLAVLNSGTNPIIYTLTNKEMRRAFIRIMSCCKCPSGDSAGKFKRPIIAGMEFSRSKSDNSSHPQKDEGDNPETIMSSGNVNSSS", "experiment": "S1P1 CRE-bla CHOK1 reporter assay, inhibition of Forskolin induced cAMP", "assay_type": "cell-based", "conditions": "agonist activity range; S1P1 CRE-bla CHOK1 cells, 2 μM Forskolin; read-out: S1P1 ACTIVITY", "procedure": "Generation of S1P1-Mediated Inhibition of cAMP Reporter Assay\nA mammalian expression plasmid containing S1P1/EDG1 cloned into pcDNA3.1 was purchased from Missouri S&T cDNA Resource Centre. […] S1P1/pcDNA3.1 was transfected into the CRE-bla CHO K1 (Invitrogen) cell line, and stable single cell clones were selected using standard techniques.\nS1P1 CRE-Bla CHOK1 Reporter Assay—Characterization of S1P1 Agonists\nCells were seeded into 384-well black wall/clear bottom plates at 10^4 cells/well/19.5 μl assay media (DMEM-phenol free, 0.5% charcoal/dextran stripped serum, 2 mM glutamine, 0.1 mM NEAA, 1 mM Na-Pyruvate, 25 mM Hepes) and incubated for 18 hrs at 37° C. in 5% CO2. Dose response curves (10-point) were generated in 10 mM Hepes, 0.1% Pluronic F127, in the presence of Forskolin. Cells were treated with 0.5 μl compound in the presence of 2 μM Forskolin for 4 hrs at 37° C. The FRET-based β-lactamase fluorescent substrate (LiveBLAzer™-FRET B/G Loading Kit CC4-AM; Invitrogen) was prepared according to manufacturer's directions, and incubated with cells for 2 hrs at room temperature.", "units": {"EC50": "nM"}}
{"smiles": "CC(C)Oc1ccc(-c2ncc(-c3cccc4c3CC[C@H]4NCC(=O)N3CC[C@H](O)C3)s2)cc1C#N", "note": "[Compound 102, 5-(5-((R)-1-((2-((S)-3-hydroxypyrrolidin-1-yl)-2-oxoethyl)amino)-2,3-dihydro-1H-inden-4-yl)thiazol-2-yl)-2-isopropoxybenzonitrile hydrochloride]", "EC50": "0.05 to 0.5"}
{"smiles": "CC(C)Oc1ccc(-c2nnc(-c3cccc4c3CCC[C@H]4NC(=O)CN)s2)cc1C#N", "note": "[Compound 250]", "EC50": "0.5 to 5"}
{"smiles": "COCCN[C@@H]1CCc2c(-c3nnc(-c4ccc(OC(C)C)c(C#N)c4)s3)cccc21", "note": "[Compound 19]", "EC50": "0.5 to 5"}
{"smiles": "CC(C)Oc1ccc(-c2ncc(-c3cccc4c3CC[C@H]4NCC(=O)N3CCNCC3)s2)cc1C#N", "note": "[Compound 107]", "EC50": "0.5 to 5"}
{"smiles": "CC(C)Oc1ccc(-c2ncc(-c3cccc4c3CC[C@@H]4NCC(=O)N3CC[C@@H](O)C3)s2)cc1C#N", "note": "[Compound 105]", "EC50": "> 5"}
{"smiles": "CC(C)Oc1ccc(-c2nnc(-c3cccc4c3CCC[C@H]4NC(=O)CCN)s2)cc1C#N", "note": "[Compound 249]", "EC50": "0.5 to 5"}
{"smiles": "CC(C)Oc1ccc(-c2nnc(-c3cccc4c3CCC[C@@H]4NC(=O)CCN)s2)cc1C#N", "note": "[Compound 253]", "EC50": "0.5 to 5"}
{"smiles": "CC(C)Oc1ccc(-c2nnc(-c3cccc4c3CC[C@H]4NS(=O)(=O)CC(=O)O)s2)cc1C#N", "note": "[Compound 41, (R)-2-(N-(4-(5-(3-cyano-4-isopropoxyphenyl)-1,3,4-thiadiazol-2-yl)-2,3-dihydro-1H-inden-1-yl)sulfamoyl)acetic acid]", "EC50": "< 0.05"}
{"smiles": "CC(C)Oc1ccc(-c2ncc(-c3cccc4c3CC[C@H]4NC(=O)N3CC[C@H](N)C3)s2)cc1C#N", "note": "[Compound 179]", "EC50": "0.5 to 5"}
{"smiles": "COC(=O)CS(=O)(=O)N[C@H]1CCc2c(-c3nsc(-c4ccc(OC(C)C)c(C#N)c4)n3)cccc21", "note": "[Compound 313, (S)-methyl 2-(N-(4-(5-(3-cyano-4-isopropoxyphenyl)-1,2,4-thiadiazol-3-yl)-2,3-dihydro-1H-inden-1-yl)sulfamoyl)acetate]", "EC50": "0.05 to 0.5"}
{"smiles": "CC(=O)N[C@@H]1CCc2c(-c3cnc(-c4ccc(OC(C)C)c(C#N)c4)s3)cccc21", "note": "[Compound 87]", "EC50": "0.05 to 0.5"}
{"smiles": "CC(C)Oc1ccc(-c2ncc(-c3cccc4c3CC[C@H]4NC(=O)N3CCC(O)CC3)s2)cc1C#N", "note": "[Compound 202]", "EC50": "0.5 to 5"}
{"smiles": "COCC(=O)N[C@@H]1CCCc2c(-c3nnc(-c4ccc(OC(C)C)c(C#N)c4)s3)cccc21", "note": "[Compound 237]", "EC50": "0.05 to 0.5"}
{"smiles": "COCCS(=O)(=O)N[C@H]1CCCc2c(-c3nnc(-c4ccc(OC(C)C)c(C#N)c4)s3)cccc21", "note": "[Compound 281, (S)—N-(5-(5-(3-cyano-4-isopropoxyphenyl)-1,3,4-thiadiazol-2-yl)-1,2,3,4-tetrahydronaphthalen-1-yl)-2-methoxyethanesulfonamide]", "EC50": "0.05 to 0.5"}
{"smiles": "CC(C)Oc1ccc(-c2ncc(-c3cccc4c3CC[C@H]4NS(=O)(=O)CCO)s2)cc1C#N", "note": "[Compound 164, (R)—N-(4-(2-(3-cyano-4-isopropoxyphenyl)thiazol-5-yl)-2,3-dihydro-1H-inden-1-yl)-2-hydroxyethanesulfonamide]", "EC50": "0.05 to 0.5"}
{"smiles": "CC(C)Oc1ccc(-c2nnc(-c3cccc4c3CCC[C@H]4NCc3c[nH]cn3)s2)cc1C#N", "note": "[Compound 261]", "EC50": "> 5"}
{"smiles": "CC(C)Oc1ccc(-c2ncc(-c3cccc4c3CC[C@H]4NCC(=O)N3CCCC3)s2)cc1C#N", "note": "[Compound 100]", "EC50": "0.05 to 0.5"}
{"smiles": "CC(C)Oc1ccc(-c2ncc(-c3cccc4c3CC[C@H]4NS(=O)(=O)CCC(=O)O)s2)cc1C#N", "note": "[Compound 160]", "EC50": "< 0.05"}
{"smiles": "CNCC(=O)N[C@H]1CCCc2c(-c3nnc(-c4ccc(OC(C)C)c(C#N)c4)s3)cccc21", "note": "[Compound 252]", "EC50": "0.05 to 0.5"}
{"smiles": "CC(C)Oc1ccc(-c2nnc(-c3cccc4c3CCC[C@H]4NC(=O)CCO)s2)cc1C#N", "note": "[Compound 259]", "EC50": "0.05 to 0.5"}
{"smiles": "CC(C)Oc1ccc(-c2nnc(-c3cccc4c3CCC[C@H]4NCC(=O)O)s2)cc1C#N", "note": "[Compound 301, (R)-2-((5-(5-(3-cyano-4-isopropoxyphenyl)-1,3,4-thiadiazol-2-yl)-1,2,3,4-tetrahydronaphthalen-1-yl)amino)acetic acid]", "EC50": "0.05 to 0.5"}
{"smiles": "CNC(=O)CCS(=O)(=O)N[C@H]1CCCc2c(-c3nnc(-c4ccc(OC(C)C)c(C#N)c4)s3)cccc21", "note": "[Compound 298, (S)-3-(N-(5-(5-(3-cyano-4-isopropoxyphenyl)-1,3,4-thiadiazol-2-yl)-1,2,3,4-tetrahydronaphthalen-1-yl)sulfamoyl)-N-methylpropanamide]", "EC50": "0.05 to 0.5"}
{"smiles": "CC(C)Oc1ccc(-c2nnc(-c3cccc4c3CCC4NS(=O)(=O)CCN3CC[C@@H](O)C3)s2)cc1C#N", "note": "(stereo in doubt) [Compound 38, N—((R)-4-(5-(3-cyano-4-isopropoxyphenyl)-1,3,4-thiadiazol-2-yl)-2,3-dihydro-1H-inden-1-yl)-2-((R)-3-hydroxypyrrolidin-1-yl)ethanesulfonamide]", "EC50": "0.5 to 5"}
{"smiles": "CC(C)Oc1ccc(-c2ncc(-c3cccc4c3CC[C@H]4O)s2)cc1C#N", "note": "[Compound 69, (R)-5-(5-(1-hydroxy-2,3-dihydro-1H-inden-4-yl)thiazol-2-yl)-2-isopropoxy benzonitrile]", "EC50": "0.05 to 0.5"}
{"smiles": "CC(C)Oc1ccc(-c2nnc(-c3cccc4c3CCC[C@@H]4NCc3cnco3)s2)cc1C#N", "note": "[Compound 269]", "EC50": "0.5 to 5"}
{"smiles": "CC(C)Oc1ccc(-c2ncc(-c3cccc4c3CC[C@H]4NS(=O)(=O)CCN3CCC[C@@H](O)C3)s2)cc1C#N", "note": "[Compound 143, N—((R)-4-(2-(3-cyano-4-isopropoxyphenyl)thiazol-5-yl)-2,3-dihydro-1H-inden-1-yl)-2-((R)-3-hydroxypiperidin-1-yl)ethanesulfonamide]", "EC50": "0.5 to 5"}
{"smiles": "COCCN[C@@H]1CCc2c(-c3cnc(-c4ccc(OC(C)C)c(C#N)c4)s3)cccc21", "note": "[Compound 93]", "EC50": "0.5 to 5"}
{"smiles": "CC(C)Oc1ccc(-c2nsc(-c3cccc4c3CC[C@@H]4N)n2)cc1C#N", "note": "[Compound 308, (S)-5-(5-(1-amino-2,3-dihydro-1H-inden-4-yl)-1,2,4-thiadiazol-3-yl)-2-isopropoxy benzonitrile hydrochloride]", "EC50": "0.5 to 5"}
{"smiles": "CC(C)Oc1ccc(-c2ncc(-c3cccc4c3CC[C@H]4NC(=O)N(C)C)s2)cc1C#N", "note": "[Compound 168]", "EC50": "0.05 to 0.5"}
{"smiles": "CC(C)Oc1ccc(-c2nnc(-c3cccc4c3CCC[C@@H]4NC(=O)CCNS(C)(=O)=O)s2)cc1C#N", "note": "[Compound 254]", "EC50": "0.5 to 5"}
{"smiles": "CC(C)Oc1ccc(-c2nnc(-c3cccc4c3CCC[C@@H]4NS(=O)(=O)C3CC3)s2)cc1C#N", "note": "[Compound 283]", "EC50": "0.05 to 0.5"}
{"smiles": "CC(C)Oc1ccc(-c2nnc(-c3cccc4c3CCC[C@@H]4NCc3ncc[nH]3)s2)cc1C#N", "note": "[Compound 266]", "EC50": "0.05 to 0.5"}
{"smiles": "CC(C)Oc1ccc(-c2ncc(-c3cccc4c3CC[C@H]4NS(=O)(=O)Cc3ccccc3)s2)cc1C#N", "note": "[Compound 120]", "EC50": "0.5 to 5"}
{"smiles": "CC(C)Oc1ccc(-c2nnc(-c3cccc4c3CC[C@H]4NCC(=O)N(C)C)s2)cc1C#N", "note": "[Compound 22, (R)-2-((4-(5-(3-cyano-4-isopropoxyphenyl)-1,3,4-thiadiazol-2-yl)-2,3-dihydro-1H-inden-1-yl)amino)-N,N-dimethylacetamide hydrochloride]", "EC50": "0.05 to 0.5"}
{"smiles": "CC(C)Oc1ccc(-c2nnc(-c3cccc4c3CCC[C@@H]4N)s2)cc1C#N", "note": "[Compound 229, (S)-5-(5-(5-amino-5,6,7,8-tetrahydronaphthalen-1-yl)-1,3,4-thiadiazol-2-yl)-2-isopropoxybenzonitrile hydrochloride]", "EC50": "0.5 to 5"}
{"smiles": "CC(C)Oc1ccc(-c2nnc(-c3cccc4c3CCC[C@H]4NS(=O)(=O)CC(=O)N(C)C)s2)cc1C#N", "note": "[Compound 292, (R)-2-(N-(5-(5-(3-cyano-4-isopropoxyphenyl)-1,3,4-thiadiazol-2-yl)-1,2,3,4-tetrahydronaphthalen-1-yl)sulfamoyl)-N,N-dimethylacetamide]", "EC50": "0.05 to 0.5"}
{"smiles": "CC(C)Oc1ccc(-c2nnc(-c3cccc4c3CCC[C@H]4NS(N)(=O)=O)s2)cc1C#N", "note": "[Compound 275, (R)—N-(5-(5-(3-cyano-4-isopropoxyphenyl)-1,3,4-thiadiazol-2-yl)-1,2,3,4-tetrahydronaphthalen-1-yl) sulfamide]", "EC50": "0.05 to 0.5"}
{"smiles": "CC(C)Oc1ccc(-c2ncc(-c3cccc4c3CC[C@H]4NC(=O)N3CCN(C)CC3)s2)cc1C#N", "note": "[Compound 190]", "EC50": "0.5 to 5"}
{"smiles": "CC(C)Oc1ccc(-c2ncc(-c3cccc4c3CC[C@H]4NCCS(C)(=O)=O)s2)cc1C#N", "note": "[Compound 220, (R)-2-isopropoxy-5-(5-(1-((2-(methylsulfonyl)ethyl)amino)-2,3-dihydro-1H-inden-4-yl)thiazol-2-yl)benzonitrile]", "EC50": "0.05 to 0.5"}
{"smiles": "CCOC(=O)CCS(=O)(=O)N[C@H]1CCCc2c(-c3nnc(-c4ccc(OC(C)C)c(C#N)c4)s3)cccc21", "note": "[Compound 286, (S)-ethyl 3-(N-(5-(5-(3-cyano-4-isopropoxyphenyl)-1,3,4-thiadiazol-2-yl)-1,2,3,4-tetrahydronaphthalen-1-yl)sulfamoyl)propanoate]", "EC50": "0.05 to 0.5"}
{"smiles": "CC(C)Oc1ccc(-c2ncc(-c3cccc4c3CC[C@H]4NS(=O)(=O)CCN3CC[C@H](O)C3)s2)cc1C#N", "note": "[Compound 134]", "EC50": "0.5 to 5"}
{"smiles": "COCCS(=O)(=O)N[C@@H]1CCc2c(-c3cnc(-c4ccc(OC(C)C)c(C#N)c4)s3)cccc21", "note": "[Compound 116]", "EC50": "0.5 to 5"}
{"smiles": "CC(C)Oc1ccc(-c2nnc(-c3cccc4c3CCC[C@H]4NCc3ncc[nH]3)s2)cc1C#N", "note": "[Compound 265]", "EC50": "0.5 to 5"}
{"smiles": "CC(C)Oc1ccc(-c2nnc(-c3cccc4c3CCC[C@H]4NC(=O)CN(C)C)s2)cc1C#N", "note": "[Compound 236]", "EC50": "0.5 to 5"}
